Counter-ions that a name gives are not always drawn.
Tested on: HiBiT-HSD17β13 fusion protein (N-terminal HiBiT-tagged HSD17β13 isoform D) in Huh7 HiBiT-HSD17β13 OE cells
Test: Whole-cell Huh7-HSD17B13 HiBiT assay (degrader potency and maximal efficacy, luminescence readout)
Format: cell-based, human
Details: 24 hour incubation, geometric mean, * = geometric mean for all forms tested (parent and salt forms); for DC50: read-out: Huh7_HIBIT-HSD17β13_DC50 GMean DC50; for Huh7_HIBIT-HSD17β13_DC50 GMean Asymptote Maximum: max. concentration 1 μM
In short: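 Luminescence from lytic HiBiT detection tracked residual HiBiT-HSD17β13 (isoform D, N-terminal tag) in a stable Huh7 overexpressing clone after 24 h compound treatment at 37° C, 11 concentrations up to 1 μM final. Percent effect used DMSO (zero) and parental Huh7 (high) wells; four-parameter fit gave 50% degradation; viability checked by CellTiter-Glo.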

SMILES | DC50 | Huh7_HIBIT-HSD17β13_DC50 GMean Asymptote Maximum
Cn1c(=O)n(C2CCC(=O)NC2=O)c2ccc(CCCN3CCN(c4cnc(-c5ccc6cn([C@H]7CC[C@H](CNC(=O)c8cc(F)c(O)c(F)c8F)CC7)nc6c5)nc4)CC3)cc21 (mixture of isomers) [Example 76, N-{[(1r,4r)-4-(6-{5-[4-(3-{1-[(3RS)-2,6-dioxopiperidin-3-yl]-3-methyl-2-oxo-2,3-dihydro-1H-benzimidazol-5-yl}propyl)piperazin-1-yl]pyrimidin-2-yl}-2H-indazol-2-yl)cyclohexyl]methyl}-2,3,5-trifluoro-4-hydroxybenzamide, trifluoroacetate salt] | 0.15 nM | 89* %
Cn1c(=O)n(C2CCC(=O)NC2=O)c2ccc(CN3CCOC4(CCN(c5ccc6cn([C@H]7CC[C@H](CNC(=O)c8cc(F)c(O)c(F)c8F)CC7)nc6c5)CC4)C3)cc21 (mixture of isomers) [Example 77, N-{[(1r,4r)-4-{6-[4-({1-[(3RS)-2,6-dioxopiperidin-3-yl]-3-methyl-2-oxo-2,3-dihydro-1H-benzimidazol-5-yl}methyl)-1-oxa-4,9-diazaspiro[5.5]undecan-9-yl]-2H-indazol-2-yl}cyclohexyl]methyl}-2,3,5-trifluoro-4-hydroxybenzamide, trifluoroacetate salt] | 0.93 nM | 86%
Cn1c(=O)n(C2CCC(=O)NC2=O)c2ccc(C3CC4(CCN(c5ncc(-c6ccc7cn([C@H]8CC[C@H](CNC(=O)c9cc(F)c(O)c(F)c9F)CC8)nc7c6)cn5)CC4)C3)cc21 (mixture of isomers) [Example 80, N-{[(1r,4r)-4-{6-[2-(2-{1-[(3RS)-2,6-dioxopiperidin-3-yl]-3-methyl-2-oxo-2,3-dihydro-1H-benzimidazol-5-yl}-7-azaspiro[3.5]nonan-7-yl)pyrimidin-5-yl]-2H-indazol-2-yl}cyclohexyl]methyl}-2,3,5-trifluoro-4-hydroxybenzamide, trifluoroacetate salt] | 1.4 nM | 84%
Cn1c(=O)n(C2CCC(=O)NC2=O)c2ccc(CN3CCN(c4ncc(-c5ccn6cc([C@]78CC[C@](CNC(=O)c9cc(F)c(O)c(F)c9F)(CC7)CC8)nc6c5)cn4)CC3)cc21 (mixture of isomers) [Example 84, N-{[4-(7-{2-[4-({1-[(3RS)-2,6-dioxopiperidin-3-yl]-3-methyl-2-oxo-2,3-dihydro-1H-benzimidazol-5-yl}methyl)piperazin-1-yl]pyrimidin-5-yl}imidazo[1,2-a]pyridin-2-yl)bicyclo[2.2.2]octan-1-yl]methyl}-2,3,5-trifluoro-4-hydroxybenzamide] | 0.59 nM | 83%
Cn1c(=O)n(C2CCC(=O)NC2=O)c2ccc(CCCN3C[C@@H]4CN(c5ccc6cn([C@H]7CC[C@H](CNC(=O)c8cc(F)c(O)c(F)c8F)CC7)nc6c5)C[C@@H]4C3)cc21 (mixture of isomers) [Example 85, N-{[(1r,4r)-4-{6-[(3aR,6aS)-5-(3-{1-[(3RS)-2,6-dioxopiperidin-3-yl]-3-methyl-2-oxo-2,3-dihydro-1H-benzimidazol-5-yl}propyl)hexahydropyrrolo[3,4-c]pyrrol-2(1H)-yl]-2H-indazol-2-yl}cyclohexyl]methyl}-2,3,5-trifluoro-4-hydroxybenzamide] | 0.86 nM | 73%
Cn1c(=O)n(C2CCC(=O)NC2=O)c2ccc(CCCN3Cc4cnc(-c5ccc6cn([C@H]7CC[C@H](CNC(=O)c8cc(F)c(O)c(F)c8F)CC7)nc6c5)nc4C3)cc21 (mixture of isomers) [Example 86, N-{[(1r,4r)-4-{6-[6-(3-{1-[(3RS)-2,6-dioxopiperidin-3-yl]-3-methyl-2-oxo-2,3-dihydro-1H-benzimidazol-5-yl}propyl)-6,7-dihydro-5H-pyrrolo[3,4-d]pyrimidin-2-yl]-2H-indazol-2-yl}cyclohexyl]methyl}-2,3,5-trifluoro-4-hydroxybenzamide] | 0.27 nM | 78%
Cn1c(=O)n(C2CCC(=O)NC2=O)c2ccc(CCCN3CCc4nc(-c5ccc6cn([C@H]7CC[C@H](CNC(=O)c8cc(F)c(O)c(F)c8F)CC7)nc6c5)ncc4C3)cc21 (mixture of isomers) [Example 87, N-{[(1r,4r)-4-{6-[6-(3-{1-[(3RS)-2,6-dioxopiperidin-3-yl]-3-methyl-2-oxo-2,3-dihydro-1H-benzimidazol-5-yl}propyl)-5,6,7,8-tetrahydropyrido[4,3-d]pyrimidin-2-yl]-2H-indazol-2-yl}cyclohexyl]methyl}-2,3,5-trifluoro-4-hydroxybenzamide] | 0.5 nM | 78%

More lines, in order of falling DC50, values ahead:

DC50 | SMILES | Huh7_HIBIT-HSD17β13_DC50 GMean Asymptote Maximum
0.86 nM | Cn1c(=O)n(C2CCC(=O)NC2=O)c2ccc(CCCN3CCN(c4cccc(-c5nc(C67CCC(CNC(=O)c8cc(F)c(O)c(F)c8F)(CC6)CC7)no5)c4)CC3)cc21 (racemic) [Example 81, N-{[4-(5-{3-[4-(3-{1-[(3RS)-2,6-dioxopiperidin-3-yl]-3-methyl-2-oxo-2,3-dihydro-1H-benzimidazol-5-yl}propyl)piperazin-1-yl]phenyl}-1,2,4-oxadiazol-3-yl)bicyclo[2.2.2]octan-1-yl]methyl}-2,3,5-trifluoro-4-hydroxybenzamide] | 81%
0.5 nM | Cn1c(=O)n(C2CCC(=O)NC2=O)c2ccc(CN3CCN(c4ncc(-c5ccc6cn([C@]78CC[C@](CNC(=O)c9cc(F)c(O)c(F)c9F)(CC7)CC8)nc6c5)cn4)CC3)cc21 (mixture of isomers) [Example 83, N-{[4-(6-{2-[4-({1-[(3RS)-2,6-dioxopiperidin-3-yl]-3-methyl-2-oxo-2,3-dihydro-1H-benzimidazol-5-yl}methyl)piperazin-1-yl]pyrimidin-5-yl}-2H-indazol-2-yl)bicyclo[2.2.2]octan-1-yl]methyl}-2,3,5-trifluoro-4-hydroxybenzamide] | 81%
0.47 nM | Cn1c(=O)n(C2CCC(=O)NC2=O)c2ccc(CN3CCOC4(C3)CN(c3ncc(-c5ccc6cn([C@H]7CC[C@H](CNC(=O)c8cc(F)c(O)c(F)c8F)CC7)nc6c5)cn3)C4)cc21 (mixture of isomers) [Example 78, N-{[(1r,4r)-4-(6-{2-[8-({1-[(3RS)-2,6-dioxopiperidin-3-yl]-3-methyl-2-oxo-2,3-dihydro-1H-benzimidazol-5-yl}methyl)-5-oxa-2,8-diazaspiro[3.5]nonan-2-yl]pyrimidin-5-yl}-2H-indazol-2-yl)cyclohexyl]methyl}-2,3,5-trifluoro-4-hydroxybenzamide, trifluoroacetate salt] | 78%
0.31 nM | Cn1c(=O)n(C2CCC(=O)NC2=O)c2ccc(CCN3CCOC4(C3)CN(c3ncc(-c5ccc6cn([C@H]7CC[C@H](CNC(=O)c8cc(F)c(O)c(F)c8F)CC7)nc6c5)cn3)C4)cc21 (mixture of isomers) [Example 79, N-{[(1r,4r)-4-(6-{2-[8-(2-{1-[(3RS)-2,6-dioxopiperidin-3-yl]-3-methyl-2-oxo-2,3-dihydro-1H-benzimidazol-5-yl}ethyl)-5-oxa-2,8-diazaspiro[3.5]nonan-2-yl]pyrimidin-5-yl}-2H-indazol-2-yl)cyclohexyl]methyl}-2,3,5-trifluoro-4-hydroxybenzamide, trifluoroacetate salt] | 78%

Reference: patent US20240238425A1, “HSD17B13 Inhibitors and/or Degraders” (Pfizer Inc., priority 2022, published 2024)
